Where two headings read alike, the source gives them in different places.
Target: T1, LmxCLK1 (Leishmania mexicana, UniProt E9AMP2)
T1 sequence (E9AMP2 1-422): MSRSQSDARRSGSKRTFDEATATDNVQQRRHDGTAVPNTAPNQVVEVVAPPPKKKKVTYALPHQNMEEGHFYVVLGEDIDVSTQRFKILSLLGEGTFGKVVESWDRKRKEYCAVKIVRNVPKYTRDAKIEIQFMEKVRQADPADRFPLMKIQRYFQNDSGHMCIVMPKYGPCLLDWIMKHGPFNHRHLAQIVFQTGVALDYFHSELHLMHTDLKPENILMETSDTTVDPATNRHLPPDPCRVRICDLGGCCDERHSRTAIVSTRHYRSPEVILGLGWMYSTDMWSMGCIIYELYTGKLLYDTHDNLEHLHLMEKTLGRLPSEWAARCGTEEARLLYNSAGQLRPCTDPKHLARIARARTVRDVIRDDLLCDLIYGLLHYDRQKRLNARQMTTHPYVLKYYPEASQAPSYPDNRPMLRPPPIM
Experiment: biochemical
Assay type: binding

[1] = DSF, 10 µM compound, 2 µM LmxCLK1, Run 1
[2] = DSF, 10 µM compound, 2 µM LmxCLK1, Run 2
[3] = DSF, 10 µM compound, 2 µM LmxCLK1, mean of two runs
[4] = DSF, 10 µM compound, 2 µM LmxCLK1, Run 1, read-out: ΔTm Run 1
[5] = DSF, 10 µM compound, 2 µM LmxCLK1, Run 2, read-out: ΔTm Run 2
[6] = DSF, 10 µM compound, 2 µM LmxCLK1, mean of two runs, read-out: ΔTm Average

Structure (SMILES): CN(C)CCSSCCNC(=O)C1CCN(C(=O)CSc2ccc(Cl)cc2)CC1 [6H05]
- ΔTm Average: -0.1
- ΔTm Run 1: 0.1 °C
- ΔTm Run 2: -0.2

Structure (SMILES): Cc1nc(NC(=O)N2CCC[C@H]2C(N)=O)sc1-c1csc(C(C)(C)C)n1 [A66]
- ΔTm Average: 0 °C
- ΔTm Run 1: 0.4 °C
- ΔTm Run 2: -0.3

Structure (SMILES): Cc1[nH]nc2ccc(-c3cncc(OC[C@@H](N)Cc4ccccc4)c3)cc12 [A-674563]
- ΔTm Average: 0.7 °C
- ΔTm Run 1: 0.8 °C
- ΔTm Run 2: 0.6 °C

Structure (SMILES): Cc1c(NC(=O)OC[C@@H]2COCCN2)cn2ncnc(Nc3ccc4c(cnn4Cc4cccc(F)c4)c3)c12 [AC480 (BMS-599626)]
- ΔTm Run 1 [1]: 0.4 °C
- ΔTm Run 2 [2]: 0.2 °C
- ΔTm Average [3]: 0.3 °C

Structure (SMILES): CCN1CCN(Cc2ccc(-c3cc4c(N[C@H](C)c5ccccc5)ncnc4[nH]3)cc2)CC1 [AEE788 (NVP-AEE788)]
- ΔTm Run 1 [1]: 0.2 °C
- ΔTm Run 2 [2]: 0.3 °C
- ΔTm Average [3]: 0.3 °C

Structure (SMILES): CC(C)(C)c1cc(C=C(C#N)C#N)cc(Br)c1O [AG-1024]
- ΔTm Run 1 [1]: 0.0 °C
- ΔTm Run 2 [2]: -0.2 °C
- ΔTm Average [3]: -0.1 °C

Structure (SMILES): COc1cc2ncnc(Nc3cccc(Cl)c3)c2cc1OC [AG-1478 (Tyrphostin AG-1478)]
- ΔTm Run 1 [1]: 0.1 °C
- ΔTm Run 2 [2]: 0.3 °C
- ΔTm Average [3]: 0.2 °C

Structure (SMILES): COc1ccc2c(Oc3ccc(NC(=O)c4c(C)n(CC(C)(C)O)n(-c5ccccc5)c4=O)nc3)ccnc2c1 [AMG-458]
- ΔTm Run 1 [1]: 0.9 °C
- ΔTm Run 2 [2]: 1.0 °C
- ΔTm Average [3]: 1.0 °C

Structure (SMILES): COc1cc(N2CCC(N3CCN(C)CC3)CC2)ccc1Nc1ncc(Cl)c(Nc2ccccc2P(C)(C)=O)n1 [AP26113]
- ΔTm at 10 µM [4]: 1.1 °C
- ΔTm at 10 µM [5]: 0.9 °C
- ΔTm at 10 µM [6]: 1 °C

Structure (SMILES): COc1ccc(CNC(=O)Nc2ncc([N+](=O)[O-])s2)cc1 [AR-A014418]
- ΔTm Run 1 [1]: 0.0 °C
- ΔTm Run 2 [2]: -0.1 °C
- ΔTm Average [3]: -0.1 °C

Structure (SMILES): Clc1ccc(C2(c3ccc(-c4cn[nH]c4)cc3)CCNCC2)cc1 [AT7867]
- ΔTm Run 1 [1]: 1.2 °C
- ΔTm Run 2 [2]: 0.7 °C
- ΔTm Average [3]: 0.9 °C

Structure (SMILES): O=C(Nc1c[nH]nc1-c1nc2ccc(CN3CCOCC3)cc2[nH]1)NC1CC1 [AT9283]
- ΔTm at 10 µM [4]: 2.2 °C
- ΔTm at 10 µM [5]: 2.1 °C
- ΔTm at 10 µM [6]: 2.2 °C

Structure (SMILES): C=CC(=O)Nc1cccc(Nc2nc(Nc3ccc(OCCOC)cc3)ncc2F)c1 [AVL-292]
- ΔTm at 10 µM [4]: 0 °C
- ΔTm at 10 µM [5]: -0.2 °C
- ΔTm at 10 µM [6]: -0.1 °C

Structure (SMILES): C[C@@H]1COCCN1c1cc(C2(S(C)(=O)=O)CC2)nc(-c2cccc3[nH]ccc23)n1 [AZ20]
- ΔTm Average: -0.3
- ΔTm Run 1: -0.2
- ΔTm Run 2: -0.5

Structure (SMILES): Cc1ccc(NC(=O)c2cccc(C(C)(C)C#N)c2)cc1Nc1ccc2ncn(C)c(=O)c2c1 [AZ 628]
- ΔTm Run 1 [1]: 0.4 °C
- ΔTm Run 2 [2]: 0.2 °C
- ΔTm Average [3]: 0.3 °C

Structure (SMILES): Cc1cc(Nc2nc(N[C@@H](C)c3ccc(F)cc3)c(C#N)cc2F)[nH]n1 [AZ 960]
- ΔTm at 10 µM [4]: 0.3 °C
- ΔTm at 10 µM [5]: 0.3 °C
- ΔTm at 10 µM [6]: 0.3 °C

Structure (SMILES): N#Cc1ccc2[nH]c(O)c(-c3ccc(CN4CCOCC4)cn3)c2c1 [AZD1080]
- ΔTm at 10 µM [4]: 0.1 °C
- ΔTm at 10 µM [5]: -0.2 °C
- ΔTm at 10 µM [6]: -0.1 °C

Structure (SMILES): Cc1cc(Nc2nc(N[C@@H](C)c3ncc(F)cn3)ncc2Cl)n[nH]1 [AZD1480]
- ΔTm at 10 µM [4]: 0.6 °C
- ΔTm at 10 µM [5]: 0.5 °C
- ΔTm at 10 µM [6]: 0.6 °C

Structure (SMILES): Cc1ncc(-c2ccnc(Nc3ccc(S(C)(=O)=O)cc3)n2)n1C(C)C [AZD5438]
- ΔTm at 10 µM [4]: 1.2 °C
- ΔTm at 10 µM [5]: 0.8 °C
- ΔTm at 10 µM [6]: 1 °C

Structure (SMILES): Cc1cc([C@@H](C)Nc2ccccc2C(=O)O)c2nc(N3CCOCC3)cc(=O)n2c1 [AZD6482]
- ΔTm at 10 µM [4]: 0.1 °C
- ΔTm at 10 µM [5]: -0.1 °C
- ΔTm at 10 µM [6]: 0 °C

Structure (SMILES): NC(=O)Nc1cc(-c2cccc(F)c2)sc1C(=O)N[C@H]1CCCNC1 [AZD7762]
- ΔTm at 10 µM [4]: 3.5 °C
- ΔTm at 10 µM [5]: 3.1 °C
- ΔTm at 10 µM [6]: 3.3 °C

Structure (SMILES): COc1ccc(-c2ccc3c(N4CCOC[C@@H]4C)nc(N4CCOC[C@@H]4C)nc3n2)cc1CO [AZD8055]
- ΔTm at 10 µM [4]: 0.4 °C
- ΔTm at 10 µM [5]: 0.3 °C
- ΔTm at 10 µM [6]: 0.3 °C

Structure (SMILES): Cc1cc(C(=O)NOCCO)c(Nc2ccc(I)cc2F)n(C)c1=O [AZD8330]
- ΔTm at 10 µM [4]: 0.5 °C
- ΔTm at 10 µM [5]: 0.2 °C
- ΔTm at 10 µM [6]: 0.3 °C

Structure (SMILES): CNC(=O)CN1CCC(Oc2cc3c(Nc4cccc(Cl)c4F)ncnc3cc2OC)CC1 [AZD8931 (Sapitinib)]
- ΔTm Run 1 [1]: -0.1 °C
- ΔTm Run 2 [2]: -0.2 °C
- ΔTm Average [3]: -0.1 °C

From PMC7619385 (ACS infectious diseases, 2025)
